Data reported in ChEMBL document CHEMBL4406910, “Scaffold Morphing Identifies 3-Pyridyl Azetidine Ureas as Inhibitors of Nicotinamide Phosphoribosyltransferase (NAMPT)” (ACS Med Chem Lett, 2019).
≈ marks a conversion by molar mass, not a printed value.

Test: Cmax in athymic nude mouse at 10 mg/kg, po measured for 0.5 to 24 hrs by LC-MS/MS analysis
Format: ADME, organism-based
Parameters: dose 10 mg/kg, route oral
Conditions: in vivo

Row | SMILES | Cmax
1 | CCOc1nc2ccccc2n1Cc1ccc(NC(=O)N2CC(c3cccnc3)C2)cc1 | 29.1 µM

Test: Solubility of compound in pH 6.8 PBS incubated for 16 to 24 hrs under shaking condition by LC-MS/MS analysis
Format: physicochemical
Conditions: not given

Row | SMILES | solubility thermodynamic
2 | C[C@H](NC(=O)[C@@H]1CCCN1C)c1ccc(NC(=O)N2CC(c3cncc(N)c3)C2)cc1 | 820 µM (≈ 346 µg/mL)
3 | C[C@H](NC(=O)C1CCOCC1)c1ccc(NC(=O)N2CC(c3ccc(N)nc3)C2)cc1 | 310 µM (≈ 131 µg/mL)
4 | C[C@H](NC(=O)c1cccc(F)c1)c1ccc(NC(=O)N2CC(c3cncc(N)c3)C2)cc1 | 17 µM (≈ 7.37 µg/mL)
5 | C[C@H](NC(=O)c1cccc(F)c1)c1ccc(NC(=O)N2CC(c3cccnc3)C2)cc1 | 11 µM (≈ 4.6 µg/mL)
6 | CCC(=O)N[C@@H](C)c1ccc(NC(=O)N2CC(c3cccnc3)C2)cc1 | 700 µM (≈ 247 µg/mL)
7 | C[C@H](NC(=O)[C@@H]1CCCN1C)c1ccc(NC(=O)N2CC(c3cccnc3)C2)cc1 | > 1000 µM
8 | C[C@H](NC(=O)[C@@H]1CCCN1C)c1ccc(NC(=O)N2CC(c3ccc(N)nc3)C2)cc1 | 760 µM (≈ 321 µg/mL)
9 | C[C@@H](c1ccc(NC(=O)N2CC(c3cncc(N)c3)C2)cc1)N1Cc2ccccc2C1=O | 35 µM (≈ 15 µg/mL)
10 | C[C@@H](c1ccc(NC(=O)N2CC(c3cccnc3)C2)cc1)N1Cc2ccccc2C1=O | 130 µM (≈ 53.6 µg/mL)
11 | C[C@H](NC(=O)c1ncccn1)c1ccc(NC(=O)N2CC(c3cccnc3)C2)cc1 | 930 µM (≈ 374 µg/mL)
12 | C[C@H](NC(=O)C1CCOCC1)c1ccc(NC(=O)N2CC(c3cncc(N)c3)C2)cc1 | 440 µM (≈ 186 µg/mL)
13 | CCC(=O)N[C@@H](C)c1ccc(NC(=O)N2CC(c3cncc(N)c3)C2)cc1 | 230 µM (≈ 84.5 µg/mL)
14 | C[C@H](NC(=O)c1ncccn1)c1ccc(NC(=O)N2CC(c3cncc(N)c3)C2)cc1 | 300 µM (≈ 125 µg/mL)
15 | C[C@@H](c1ccc(NC(=O)N2CC(c3ccc(N)nc3)C2)cc1)N1Cc2ccccc2C1=O | 220 µM (≈ 94.1 µg/mL)
16 | C[C@H](NC(=O)c1cccc(F)c1)c1ccc(NC(=O)N2CC(c3ccc(N)nc3)C2)cc1 | 32 µM (≈ 13.9 µg/mL)
17 | CCC(=O)N[C@@H](C)c1ccc(NC(=O)N2CC(c3ccc(N)nc3)C2)cc1 | 760 µM (≈ 279 µg/mL)
18 | C[C@H](NC(=O)c1ncccn1)c1ccc(NC(=O)N2CC(c3ccc(N)nc3)C2)cc1 | 300 µM (≈ 125 µg/mL)
19 | C[C@H](NC(=O)C1CCOCC1)c1ccc(NC(=O)N2CC(c3cccnc3)C2)cc1 | 380 µM (≈ 155 µg/mL)

Test: AUC (0 to 7 hrs) in athymic nude mouse at 10 mg/kg, po measured for 0.5 to 24 hrs by LC-MS/MS analysis
Format: ADME, organism-based
Parameters: time < 7 hr, dose 10 mg/kg, route oral
Conditions: in vivo

Row | SMILES | AUC(0-t) at 7 h
20 | CCOc1nc2ccccc2n1Cc1ccc(NC(=O)N2CC(c3cccnc3)C2)cc1 | 67.4 µM·h
